Source: patent publication US9145415B2, “Nitrogen-containing heterocyclic compound or salt thereof” (FUJIFILM Corporation, priority 2012, dated 2015)
Like-named read-outs stand apart in the source and are kept apart here.

Legend:
[1] = molecular target: T1, human FLT3 protein (FLT3 (WT)) (Homo sapiens, UniProt P36888); assay: FLT3 inhibition test (FLT3 enzyme inhibition, time-resolved fluorescence of substrate peptide phosphorylation); format: biochemical; details: read-out: FLT3 (WT) enzyme inhibition activity
T1 construct: human FLT3 protein (intracellular region, 564 to 993 aa); GST; purchased Carna Biosciences; host or cells: baculovirus expression system
T1 sequence (P36888 564-993): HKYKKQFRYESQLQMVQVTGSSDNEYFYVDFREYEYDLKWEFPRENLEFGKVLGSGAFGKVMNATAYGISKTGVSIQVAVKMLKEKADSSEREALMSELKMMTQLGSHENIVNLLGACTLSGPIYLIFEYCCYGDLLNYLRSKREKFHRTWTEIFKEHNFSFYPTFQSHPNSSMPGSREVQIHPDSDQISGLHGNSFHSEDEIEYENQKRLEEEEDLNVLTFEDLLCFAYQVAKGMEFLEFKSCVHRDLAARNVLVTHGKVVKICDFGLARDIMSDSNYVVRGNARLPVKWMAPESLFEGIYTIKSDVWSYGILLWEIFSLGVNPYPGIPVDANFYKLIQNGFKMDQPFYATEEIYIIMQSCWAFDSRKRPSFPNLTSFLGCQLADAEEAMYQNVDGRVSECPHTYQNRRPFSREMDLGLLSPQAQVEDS
Procedure, shortened: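 Substrate peptide phosphorylation detected by time-resolved fluorescence after a 30 min kinase reaction at 25° C with 50 μM ATP (final). Beforehand, compound and FLT3 (WT, 1.2 μg) stood 15 min at 25° C in HEPES buffer pH 7.5 containing MgCl2, NaCl, BSA and DTT.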

[2] = test system: Molm-13 cells; assay: Leukemia cell proliferation inhibition test (ATPlite), Molm-13; format: cell-based; details: read-out: MOLM13 cell proliferation inhibition effect
Procedure, shortened: (§1)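 Molm-13 or MV4-11 cells in RPMI with 10% FBS and pen/strep, seeded at 10,000 cells per well, were exposed to serially diluted compound for 72 hours at 37° C, 5% CO2. Total cellular ATP was read by luciferase luminescence. GI50 came from sigmoid fits against the 0.1% DMSO control, in duplicate.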

[3] = test system: MV4-11 cells; assay: Leukemia cell proliferation inhibition test (ATPlite), MV4-11; format: cell-based; details: read-out: MV4-11 cell proliferation inhibition effect
Procedure, shortened: as §1

[4] = GST-fused human FLT3 (564 to 993 aa), ATP 50 μM
[5] = Homo sapiens, MOLM-13, 72 h, Molm-13, 72 hours culture, ATPlite, GI50 per method
[6] = Homo sapiens, MV4-11, 72 h, MV4-11, 72 hours culture, ATPlite, GI50 per method
[7] = Homo sapiens, MOLM-13, MOLM13 cell
[8] = Homo sapiens, MV4-11, MV4-11 cell

SMILES | IC50 [1, 4] [nM] | IC50 [2, 5] [nM] | IC50 [3, 6] [nM] | IC50 ([1]; FLT3 (WT)) [nM] | IC50 [2, 7] [nM] | IC50 [3, 8] [nM] | IC50 ([2]; Molm-13, 72 hours culture, ATPlite, GI50 per method) [nM] | IC50 ([3]; MV4-11, 72 hours culture, ATPlite, GI50 per method) [nM]
C=CC(=O)NCC(=O)Nc1ccccc1CNC(=O)c1cnc(NCCc2ccncc2)nc1NCCC [Compound 2-29] | 10 to 100 | 100 to 1000 | 100 to 1000 | – | – | – | – | –
CNc1nc(Nc2ccc(F)cc2)ncc1C#CCCCNC(=O)[C@@H]1C[C@H](OC)CN1C(=O)/C=C/CN(C)C [Compound 7-82] | < 10 | < 10 | < 10 | – | – | – | – | –
C[C@@H](C(=O)NCCCC#Cc1cnc(Nc2cccc(F)c2)nc1OC1CCC1)N(C)C(=O)/C=C/CN(C)C [Compound 7-6] | < 10 | 10 to 100 | 10 to 100 | – | – | – | – | –
C[C@@H](C(=O)N[C@H]1C[C@@H](C#Cc2cnc(Nc3cccc(C#N)c3)nc2NC2CC2)C1)N(C)C(=O)/C=C/CN(C)C [Compound 13-20, (E)-N—((S)-1-(((1S,3R)-3-((2-((3-Cyanophenyl)amino)-4-(cyclopropylamino)pyrimidin-5-yl)ethynyl)cyclobutyl)amino)-1-oxopropan-2-yl)-4-(dimethylamino)-N-methyl-2-butenamide] | < 10 | < 10 | < 10 | – | – | – | – | –
CCCN(CCC)c1nc(Nc2cccc(F)c2)ncc1C#CCCCNC(=O)[C@H](C)N(C)C(=O)/C=C/CN(C)C [Compound 10-10] | < 10 | < 10 | < 10 | – | – | – | – | –
C[C@@H](C(=O)Nc1cccc(C#Cc2cnc(NCCc3ccncc3)nc2N2CCOCC2)c1)N(C)C(=O)/C=C/CN(C)C [Compound 12-13, (S,E)-4-(dimethylamino)-N-methyl-N-(1-((3-((4-morpholino-2-((2-(pyridin-4-yl)ethyl)amino)pyrimidin-5-yl)ethynyl)phenyl)amino)-1-oxopropan-2-yl)-2-butenamide] | < 10 | < 10 | < 10 | – | – | – | – | –
C[C@@H](C(=O)NCCCC#Cc1cnc(Nc2ccc(C#N)cc2)nc1NCCCF)N(C)C(=O)/C=C/CN(C)C [Compound 10-29] | < 10 | < 10 | < 10 | – | – | – | – | –
CCCNc1nc(Nc2ccc(C#N)cc2)ncc1C#CCCCNC(=O)CN(CCC)C(=O)/C=C/CN(C)C [Compound 7-64] | < 10 | < 10 | < 10 | – | – | – | – | –
CNc1nc(Nc2ccc(F)cc2)ncc1C#CCCCNC(=O)[C@@H]1CC(F)(F)CN1C(=O)/C=C/CN(C)C [Compound 7-93] | < 10 | < 10 | < 10 | – | – | – | – | –
C[C@@H](C(=O)NCCCC#Cc1cnc(Nc2cccc(F)c2)nc1NCCCF)N(C)C(=O)/C=C/CN(C)C [Compound 7-31] | < 10 | < 10 | < 10 | – | – | – | – | –
CCCNc1nc(Nc2ccc(C(N)=O)cc2)ncc1C(=O)Nc1cccc(NC(=O)C(C)(C)NC(=O)/C=C/CN(C)C)c1 [Compound 3-13] | < 10 | 10 to 100 | 10 to 100 | – | – | – | – | –
CC(C)CCNc1nc(Nc2ccc(C#N)cc2)ncc1C#CCCCNC(=O)[C@H](C)N(C)C(=O)/C=C/CN(C)C [Compound 10-13] | < 10 | < 10 | < 10 | – | – | – | – | –
CCCNc1nc(Nc2ccc(C(N)=O)cc2)ncc1C(=O)N[C@@H]1CCC[C@H](Nc2ccccc2NC(=O)/C=C/CN(C)C)C1 [Compound 3-28] | < 10 | – | – | – | – | – | 100 to 1000 | 100 to 1000
C=CC(=O)N[C@@H](C)C(=O)Nc1cccc(NC(=O)c2cnc(NCCc3ccncc3)nc2NCCC)c1 [Compound 1-1, (S)—N-(3-(2-(acrylylamido)propanamido)phenyl)-4-(propylamino)-2-((2-(pyridin-4-yl)ethyl)amino)pyrimidine-5-carboxamide] | < 10 | 10 to 100 | 10 to 100 | – | – | – | – | –
CCCNc1nc(NCCc2ccncc2)ncc1C(=O)Nc1cccc(NC(=O)[C@H](C)N(C)C(=O)/C=C/CN(C)C)c1 [Compound 2-12, (S,E)-N-(3-(2-(4-(Dimethylamino)-N-methyl-2-butenamido)propanamido)phenyl)-4-(propylamino)-2-((2-(pyridin-4-yl)ethyl)amino)pyrimidine-5-carboxamide] | < 10 | < 10 | < 10 | – | – | – | – | –
CC(C)CNc1nc(Nc2ccc(C#N)cc2)ncc1C#CCCCNC(=O)[C@H](C)N(C)C(=O)/C=C/CN(C)C [Compound 10-24] | < 10 | < 10 | < 10 | – | – | – | – | –
CN(C)C/C=C/C(=O)N(C)CC(=O)NCCCC#Cc1cnc(Nc2ccc(F)cc2)nc1NCC1CCOCC1 [Compound 10-18] | < 10 | < 10 | < 10 | – | – | – | – | –
CNc1nc(Nc2ccc3c(cnn3C)c2)ncc1C#CCCCNC(=O)[C@H](C)N(C)C(=O)/C=C/CN(C)C [Compound 10-52] | < 10 | < 10 | < 10 | – | – | – | – | –
CCCNc1nc(Nc2ccc(C)cc2)ncc1C#CCCCNC(=O)[C@H](C)N(C)C(=O)/C=C/CN(C)C [Compound 12-9] | < 10 | 10 to 100 | 10 to 100 | – | – | – | – | –
CCCNc1nc(Nc2ccc(C#N)cc2)ncc1C#Cc1cccc(NC(=O)[C@H](C)N(C)C(=O)/C=C/CN(C)C)n1 [Compound 8-19] | < 10 | 10 to 100 | 10 to 100 | – | – | – | – | –
C=CC(=O)N(C)CC(=O)NCCCNC(=O)c1cnc(NC(=O)Nc2ccncc2)nc1NCCC [Compound 6-12] | < 10 | 100 to 1000 | 10 to 100 | – | – | – | – | –
CCCNc1nc(Nc2ccc(C#N)cc2)ncc1C#C[C@@H]1CC[C@H](NC(=O)[C@H](C)N(C)C(=O)/C=C/CN(C)C)C1 [Compound 13-11] | < 10 | < 10 | < 10 | – | – | – | – | –
CCCNc1nc(Nc2ccc(C(N)=O)cc2)ncc1C(=O)NCCCNC(C)(C)CNC(=O)/C=C/CN(C)C [Compound 3-24] | < 10 | 100 to 1000 | 10 to 100 | – | – | – | – | –
C[C@@H](C(=O)NCCCC#Cc1cnc(Nc2ccc(F)nc2)nc1NCCCF)N(C)C(=O)/C=C/CN(C)C [Compound 10-34] | < 10 | < 10 | < 10 | – | – | – | – | –

The next lines start with the values.

IC50 [1, 4] [nM] | IC50 [2, 5] [nM] | IC50 [3, 6] [nM] | IC50 ([1]; FLT3 (WT)) [nM] | IC50 [2, 7] [nM] | IC50 [3, 8] [nM] | IC50 ([2]; Molm-13, 72 hours culture, ATPlite, GI50 per method) [nM] | IC50 ([3]; MV4-11, 72 hours culture, ATPlite, GI50 per method) [nM] | SMILES
10 to 100 | < 10 | < 10 | – | – | – | – | – | C[C@@H](C(=O)NCCCC#Cc1cnc(Nc2ccc(C#N)cc2)nc1-c1ccccc1)N(C)C(=O)/C=C/CN(C)C [Compound 20-1, (S,E)-N-(1-((5-(2-((4-cyanophenyl)amino)-4-phenylpyrimidin-5-yl)-4-pentyn-1-yl)amino)-1-oxopropan-2-yl)-4-(dimethylamino)-N-methyl-2-butenamide]
– | – | – | < 10 | < 10 | < 10 | – | – | CC(C)Nc1nc(Nc2ccc(C#N)cc2)ncc1C#CCCCNC(=O)[C@H](C)N(C)C(=O)/C=C/CN(C)C [Compound 21-33]
< 10 | < 10 | < 10 | – | – | – | – | – | C[C@@H](C(=O)NCCCC#Cc1cnc(Nc2ccc(F)c(F)c2)nc1NC1CC1)N(C)C(=O)/C=C/CN(C)C [Compound 21-2]
– | – | – | < 10 | 10 to 100 | 10 to 100 | – | – | CCCNc1nc(NC)ncc1C#C[C@@H]1CCC[C@H](NC(=O)[C@H](C)N(C)C(=O)/C=C/CN(C)C)C1 [Compound 21-35]
– | – | – | < 10 | < 10 | < 10 | – | – | CCCNc1nc(Nc2ccc3c(OC)nn(CCOC)c3c2)ncc1C#CCCCNC(=O)[C@@H]1CCCN1C(=O)/C=C/CN(C)C [Compound 22-55]
– | – | – | < 10 | < 10 | < 10 | – | – | CCCNc1nc(Nc2cnc3c(c2)c(C)nn3CCOC)ncc1C#CCCCNC(=O)[C@H](C)N(C)C(=O)/C=C/CN(C)C [Compound 22-41]
< 10 | < 10 | < 10 | – | – | – | – | – | CCCNc1nc(Nc2ccnc(F)c2)ncc1C#C[C@@H]1CCC[C@H](NC(=O)[C@H](C)N(C)C(=O)/C=C/CN(C)C)C1 [Compound 14-1, (E)-4-(dimethylamino)-N—((S)-1-(((1S,3R)-3-((2-((2-fluoropyridin-4-yl)amino)-4-(propylamino)pyrimidin-5-yl)ethynyl)cyclohexyl)amino)-1-oxopropan-2-yl)-N-methyl-2-butenamido]
– | – | – | < 10 | 10 to 100 | 10 to 100 | – | – | CCCNc1nc(Nc2ccc3c(OC)nn(C)c3c2)ncc1C#CCCCNC(=O)[C@H](C)N(C)C(=O)/C=C/CN(C)C [Compound 22-26]
– | – | – | < 10 | < 10 | < 10 | – | – | CCCNc1nc(Nc2ccc3c(c2)c(F)nn3C)ncc1C#CCCCNC(=O)[C@H](C)N(C)C(=O)/C=C/CN(C)C [Compound 22-60]
